Among the data in patent publication US9624182B2, “Compounds as lysophosphatidic acid receptor antagonists” (Amira Pharmaceuticals, Inc., priority 2009, dated 2017) are IC50 values, retold here.

As usually defined, the IC50 is the point on the concentration scale where inhibition reaches its midpoint.

T1 sequence (Q92633 whole entry): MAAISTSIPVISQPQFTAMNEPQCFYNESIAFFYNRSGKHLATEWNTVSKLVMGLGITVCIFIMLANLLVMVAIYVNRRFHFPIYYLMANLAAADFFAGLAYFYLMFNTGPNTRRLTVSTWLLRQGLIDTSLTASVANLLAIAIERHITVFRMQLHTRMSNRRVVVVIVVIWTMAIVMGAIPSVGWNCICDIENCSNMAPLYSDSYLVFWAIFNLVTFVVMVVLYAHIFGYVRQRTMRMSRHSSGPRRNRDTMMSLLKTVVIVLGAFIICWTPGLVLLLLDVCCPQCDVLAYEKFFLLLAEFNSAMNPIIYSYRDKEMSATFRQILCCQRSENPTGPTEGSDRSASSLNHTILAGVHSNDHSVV

The experiment concerns the target T1, human LPA1 (Homo sapiens, UniProt Q92633).
T1 construct: the full-length cDNA for human LPA1 was obtained by PCR of the reverse transcription reaction; expressed in transfected cells
Briefly: LPA1 calcium flux assay. It is filed as cell-based. The conditions noted are these: CHO cells expressing human LPA1, stimulated with 10 nM LPA; read-out: HLPA1 Ca Flux IC50. The procedure:
A 1.1 kb cDNA encoding the human LPA1 receptor was cloned from human lung. Human lung RNA (Clontech Laboratories, Inc. USA) was reverse transcribed using the RETROscript kit (Ambion, Inc.) and the full-length cDNA for human LPA1 was obtained by PCR of the reverse transcription reaction. The nucleotide sequence of the cloned human LPA1 was determined by sequencing and confirmed to be identical to the published human LPA1 sequence (An et al. Biochenm. Biophys. Res. Commun. 231:619 (1997). The cDNA was cloned into the pCDNA5/FRT expression plasmid and transfected in CHO cells using lipofectamine 2000 (Invitrogen Corp., USA). Clones stably expressing human LPA1 were selected using hygromycin and identified as cells that show Ca-influx in response to LPA.
Human LPA1 or LPA3 expressing CHO cells are seeded at 20,000-45,000 cells per well in a 96-well poly-D-lysine coated plate one or two days before the assay. Prior to the assay, the cells are washed once with PBS and then cultured in serum-free media overnight. On the day of the assay, a calcium indicator dye (Calcium 4, Molecular Devices) in assay buffer (HBSS with Ca^2+ and Mg^2+ and containing 20 mM Hepes and 0.3% fatty-acid free human serum albumin) is added to each well and incubation continued for 1 hour at 37° C. 10 μl of test compounds in 2.5% DMSO are added to the cells and incubation continued at room temperature for 30 minutes. Cells are the stimulated by the addition of 10 nM LPA and intracellular Ca^2+ measured using the Flexstation 3 (Molecular Devices). IC50s are determined using Graphpad prism analysis of drug titration curves.
For the compound `Cc1noc(-c2ccc(-c3ccc(C(C)C(=O)O)cc3)cc2)c1CC(F)(F)CCc1ccccc1` (stereo not shown) [Compound 1-136, 2-{4′-[4-(2,2-Difluoro-4-phenyl-butyl)-3-methyl-isoxazol-5-yl]-biphenyl-4-yl}-propionic acid], the half-maximal inhibitory concentration (IC50) was below 300 nM.

`Cc1noc(-c2ccc(-c3ccc(C4(C(=O)O)CC4)cc3)cc2)c1COC(=O)N[C@H](C)c1ccccc1` [Compound 1-19, 1-{4′-[3-Methyl-4-((R)-1-phenyl-ethylcarbamoyloxymethyl)-isoxazol-5-yl]-biphenyl-4-yl}-cyclopropanecarboxylic acid]: the IC50 was below 300 nM.

`Cc1noc(-c2ccc(-c3ccc(C4(C(=O)O)CC4)cc3)cc2)c1N(C)C(C)CCc1ccccc1` (stereo not shown) [Compound 1-267, 1-(4′-{3-Methyl-4-[methyl-(1-methyl-3-phenyl-propyl)-amino]-isoxazol-5-yl}-biphenyl-4-yl)-cyclopropanecarboxylic acid]: the IC50 is below 300 nM.

In the case of `Cc1noc(-c2ccc(-c3ccc(C4(C(=O)O)CC4)cc3)cc2)c1NC(C)CCCO` (stereo not shown) [Compound 1-230, 1-{4′-[4-(4-Hydroxy-1-methyl-butylamino)-3-methyl-isoxazol-5-yl]-biphenyl-4-yl}-cyclopropanecarboxylic acid], the IC50 is 1000 to 50000 nM.

As to `Cc1noc(-c2ccc(-c3ccc(C4(C(=O)O)CC4)cc3)cc2)c1C(C)C(=O)NC(C)c1ccccc1` (stereo not shown) [Compound 1-97, 1-(4′-{3-Methyl-4-[1-(1-phenyl-ethylcarbamoyl)-ethyl]-isoxazol-5-yl}-biphenyl-4-yl)-cyclopropanecarboxylic acid], the IC50 fell in the range of 1000 to 50000 nM.

As for `Cc1noc(-c2ccc(-c3ccc(CC(=O)O)cc3)cc2)c1NC(C)CCc1cccc(C(F)(F)F)c1` (stereo not shown) [Compound 1-181, (4′-{3-Methyl-4-[1-methyl-3-(3-trifluoromethyl-phenyl)-propylamino]-isoxazol-5-yl}-biphenyl-4-yl)-acetic acid], the IC50 was in the range of 300 to 1000 nM.

On to `Cc1noc(-c2ccc(-c3ccc(C4(C(=O)O)CC4)cc3)cc2)c1COCc1ccccc1Cl` [Compound 1-46, 1-{4′-[4-(2-Chloro-benzyloxymethyl)-3-methyl-isoxazol-5-yl]-biphenyl-4-yl}-cyclopropanecarboxylic acid], for which the concentration for half-maximal inhibition (IC50) lay within 1000 to 50000 nM.

In the case of `Cc1noc(-c2ccc(-c3ccc(C4(C(=O)O)CC4)cc3)cc2)c1CCC(=O)N(C)[C@H](C)c1ccccc1` [Compound 1-105, 1-[4′-(3-Methyl-4-{2-[(R)-methyl-(1-phenyl-ethyl)-carbamoyl]-ethyl}-isoxazol-5-yl)-biphenyl-4-yl]-cyclopropanecarboxylic acid], the 50% inhibitory concentration (IC50) was below 300 nM.

As to `CCCCCCCCCCCCOc1cccc(Nc2c(C)noc2-c2ccc(-c3ccc(C4(C(=O)O)CC4)cc3)cc2)n1` [Compound 1-303, 1-{4′-[4-(6-Dodecyloxy-pyridin-2-ylamino)-3-methyl-isoxazol-5-yl]-biphenyl-4-yl}-cyclopropanecarboxylic acid], the half-inhibitory concentration (IC50) fell in the range of 1000 to 50000 nM.

Consider `Cc1noc(-c2ccc(-c3ccc(C4(C(=O)O)CC4)cc3)cc2)c1COC(=O)NCc1ccccc1` [Compound 1-21, 1-[4′-(4-Benzylcarbamoyloxymethyl-3-methyl-isoxazol-5-yl)-biphenyl-4-yl]-cyclopropanecarboxylic acid], for which the IC50 was below 300 nM.

On to `Cc1noc(-c2ccc(-c3ccc(C4(C(=O)O)CC4)cc3)cc2)c1Nc1ccc2ccccc2n1` [Compound 1-280, 1-{4′-[3-Methyl-4-(quinolin-2-ylamino)-isoxazol-5-yl]-biphenyl-4-yl}-cyclopropanecarboxylic acid], for which the 50% inhibitory concentration (IC50) is below 300 nM.

As to `Cc1noc(-c2ccc(-c3ccc(C4(C(=O)O)CC4)cc3)cc2)c1CSCC(C)C` [Compound 1-96, 1-[4′-(4-Isobutylsulfanylmethyl-3-methyl-isoxazol-5-yl)-biphenyl-4-yl]-cyclopropanecarboxylic acid], the IC50 was below 300 nM.

On to `Cc1noc(-c2ccc(-c3ccc(C4(C(=O)O)CC4)cc3)cc2)c1CCC(=O)N(C)C1CC1` [Compound 1-127, 1-(4′-{4-[2-(Cyclopropyl-methyl-carbamoyl)-ethyl]-3-methyl-isoxazol-5-yl}-biphenyl-4-yl)-cyclopropanecarboxylic acid], for which the half-inhibitory concentration (IC50) lay in the range of 1000 to 50000 nM.

As for `Cc1noc(-c2ccc(-c3ccc(C4(C(=O)O)CC4)cc3)cc2)c1C[S+]([O-])Cc1ccccc1` (stereo not shown) [Compound 1-52, 1-[4′-(3-Methyl-4-phenylmethanesulfinylmethyl-isoxazol-5-yl)-biphenyl-4-yl]-cyclopropanecarboxylic acid], the 50% inhibitory concentration (IC50) is above 50000 nM.

Take `Cc1noc(-c2ccc(-c3ccc(C4(C(=O)O)CC4)cc3)cc2)c1C(O)CSc1ccccc1` (stereo not shown) [Compound 1-277, 1-{4′-[4-(1-Hydroxy-2-phenylsulfanyl-ethyl)-3-methyl-isoxazol-5-yl]-biphenyl-4-yl}-cyclopropanecarboxylic acid]: the half-inhibitory concentration (IC50) was below 300 nM.

With `Cc1noc(-c2ccc(-c3ccc(C4(C(=O)O)CC4)cc3)cc2)c1C(=O)CCCc1ccccc1` [Compound 1-124, 1-{4′-[3-Methyl-4-(4-phenyl-butyryl)-isoxazol-5-yl]-biphenyl-4-yl}-cyclopropanecarboxylic acid], the half-maximal inhibitory concentration (IC50) was 1000 to 50000 nM.

Regarding `Cc1noc(-c2ccc(-c3ccc([C@H]4C[C@H]4C(=O)O)cc3)cc2)c1CSCCc1ccccc1` (relative stereo) [Compound 1-131, (cis)-2-[4′-(3-Methyl-4-phenethylsulfanylmethyl-isoxazol-5-yl)-biphenyl-4-yl]-cyclopropanecarboxylic acid], the IC50 is below 300 nM.

As for `C=CCCC(C)Nc1c(C)noc1-c1ccc(-c2ccccc2CC(=O)O)cc1` (stereo not shown) [Compound 1-228, {4′-[3-Methyl-4-(1-methyl-pent-4-enylamino)-isoxazol-5-yl]-biphenyl-2-yl}-acetic acid], the half-inhibitory concentration (IC50) is 1000 to 50000 nM.

For `Cc1noc(-c2ccc(-c3ccc(C4(C(=O)O)CC4)cc3)cc2)c1/C=C/S(=O)(=O)Cc1ccccc1` [Compound 1-259, 1-{4′-[3-Methyl-4-((E)-2-phenylmethanesulfonyl-vinyl)-isoxazol-5-yl]-biphenyl-4-yl}-cyclopropanecarboxylic acid], the IC50 is 1000 to 50000 nM.

For the compound `Cc1noc(-c2ccc(-c3ccc(C4CC4C(=O)O)cc3)cc2)c1[C@@H](O)COCc1ccccc1` (stereo partly drawn) [Compound 1-215, (cis)-2-{4′-[4-((R)-2-Benzyloxy-1-hydroxy-ethyl)-3-methyl-isoxazol-5-yl]-biphenyl-4-yl}-cyclopropanecarboxylic acid], the IC50 was below 300 nM.

`Cc1noc(-c2ccc(-c3ccc(C4(C(=O)O)CC4)cc3)cc2)c1Nc1cccc(C(=O)NCC(C)(C)C)n1` [Compound 1-300, 1-(4′-{4-[6-(2,2-Dimethyl-propylcarbamoyl)-pyridin-2-ylamino]-3-methyl-isoxazol-5-yl}-biphenyl-4-yl)-cyclopropanecarboxylic acid]: the IC50 is below 300 nM.

As for `Cc1noc(-c2ccc(-c3ccc(C4(C(=O)O)CC4)cc3)cc2)c1CNC(=O)CCc1ccccc1` [Compound 1-60, 1-(4′-{3-Methyl-4-[(3-phenyl-propionylamino)-methyl]-isoxazol-5-yl}-biphenyl-4-yl)-cyclopropanecarboxylic acid], the IC50 is 1000 to 50000 nM.

Take `Cc1noc(-c2ccc(-c3ccc(C4CC4C(=O)O)cc3)cc2)c1[C@H](O)COCc1ccccc1` (single isomer, unassigned) [Compound 1-216]: the IC50 was below 300 nM.

Regarding `Cc1noc(-c2ccc(-c3ccc(C4(C(=O)O)CC4)cc3)cc2)c1C(=O)CCc1ccccc1` [Compound 1-157, 1-{4′-[3-Methyl-4-(3-phenyl-propionyl)-isoxazol-5-yl]-biphenyl-4-yl}-cyclopropanecarboxylic acid], the IC50 fell in the range of 1000 to 50000 nM.

With `Cc1noc(-c2ccc(-c3ccc(C4(CC(=O)NS(C)(=O)=O)CC4)cc3)cc2)c1C(CCCc1ccccc1)OC(=O)NS(C)(=O)=O` (stereo not shown) [Compound 2-15, N-Sulfonylmethyl carbamic acid 1-(5-{4′-[1-(2-methanesulfonylamino-2-oxo-ethyl)-cyclopropyl]-biphenyl-4-yl}-3-methyl-isoxazol-4-yl)-4-phenyl-butyl ester], the IC50 lay in the range of 300 to 1000 nM.

Regarding `Cc1noc(-c2ccc(-c3ccc(C4(C(=O)O)CC4)cc3)cc2)c1CCN(Cc1ccccc1)Cc1ccccc1` [Compound 1-37, 1-{4′-[4-(2-Dibenzylamino-ethyl)-3-methyl-isoxazol-5-yl]-biphenyl-4-yl}-cyclopropanecarboxylic acid], the IC50 lay within 1000 to 50000 nM.

In the case of `Cc1noc(-c2ccc(-c3ccc(C4(C(=O)O)CC4)cc3)cc2)c1CC(=O)CCc1ccccc1` [Compound 1-88, 1-{4′-[3-Methyl-4-(2-oxo-4-phenyl-butyl)-isoxazol-5-yl]-biphenyl-4-yl}-cyclopropanecarboxylic acid], the half-inhibitory concentration (IC50) was below 300 nM.

On to `Cc1noc(-c2ccc(-c3ccc(C4(CC(=O)O)CC4)cc3)cc2)c1NC(C)CCc1ccccc1Cl` (stereo not shown) [Compound 1-222, [1-(4′-{4-[3-(2-Chloro-phenyl)-1-methyl-propylamino]-3-methyl-isoxazol-5-yl}-biphenyl-4-yl)-cyclopropyl]-acetic acid], for which the IC50 is below 300 nM.
